# Experimental data from PubChem BioAssay (NCI).
#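 Compound exposure: 48 hours, 5 concentrations, 96-well plates. At the TGI there is no net growth.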
# Key:
# Experiment in all cases: NCI anticancer screen, dose series, 48 h
# [1] = tested on: CCRF-CEM leukemia
# [2] = tested on: SF-539 CNS
# [3] = tested on: U251 CNS
# [4] = tested on: OVCAR-4 ovarian
# [5] = tested on: SW-620 colon
# [6] = tested on: SK-MEL-2 melanoma
# [7] = tested on: NCI-H23 lung
# [8] = tested on: NCI-H226 lung
# [9] = tested on: MDA-MB-231 breast
# [10] = tested on: HCT-116 colon
# [11] = tested on: A549 NSCLC
# [12] = tested on: HCT-15 colon
# [13] = tested on: RXF 393 renal
# [14] = tested on: NCI/ADR-RES ovarian
# [15] = tested on: SK-MEL-28 melanoma
# [16] = tested on: T-47D breast
# [17] = tested on: HOP-92 NSCLC
# [18] = tested on: PC-3 prostate
# [19] = tested on: UACC-257 melanoma
# [20] = tested on: RPMI-8226 leukemia
# [21] = tested on: EKVX NSCLC
# [22] = tested on: M14 melanoma
# [23] = tested on: 786-0 renal
# [24] = tested on: SF-295 CNS
# [25] = tested on: SF-268 CNS
# [26] = tested on: OVCAR-5 ovarian
# [27] = tested on: MALME-3M melanoma
# [28] = tested on: HOP-62 NSCLC
# [29] = tested on: MDA-MB-435
# [30] = tested on: OVCAR-8 ovarian
# [31] = tested on: UACC-62 melanoma
# [32] = tested on: CAKI-1 renal
# [33] = tested on: DU-145 prostate
# [34] = tested on: HL-60(TB) leukemia
# [35] = tested on: SNB-75 CNS
# [36] = tested on: ACHN renal
# [37] = tested on: COLO 205 colon
# [38] = tested on: SK-MEL-5 melanoma
# [39] = tested on: MDA-N
# [40] = tested on: NCI-H522 lung
# [41] = tested on: MCF7 breast
# [42] = tested on: UO-31 renal
# [43] = tested on: LOX IMVI melanoma
# [44] = tested on: SK-OV-3 ovarian
# [45] = tested on: SN12C renal
# [46] = tested on: SR leukemia
# [47] = tested on: KM12 colon
# [48] = tested on: HS 578T breast
# [49] = tested on: HCC-2998 colon
# [50] = tested on: BT-549 breast
# [51] = tested on: MOLT-4 leukemia
# [52] = tested on: IGROV1 ovarian
# [53] = tested on: TK-10 renal
# [54] = tested on: A498 renal
# [55] = tested on: HT29 colon
# [56] = tested on: OVCAR-3 ovarian
# [57] = tested on: NCI-H460 lung
# [58] = tested on: K-562 leukemia
# [59] = tested on: SNB-19 CNS
compound,measurement,setting,value
CC1(C)CCCC2(C)C3=C(CCC12)C(=O)OC3 (stereo unspecified),TGI,[1],> 100 µM
same,TGI,[2],> 100 µM
same,TGI,[3],> 100 µM
same,TGI,[4],> 100 µM
same,TGI,[5],> 100 µM
same,TGI,[6],> 100 µM
same,TGI,[7],> 100 µM
same,TGI,[8],> 100 µM
same,TGI,[9],> 100 µM
same,TGI,[10],> 100 µM
same,TGI,[11],> 100 µM
same,TGI,[12],> 100 µM
same,TGI,[13],> 100 µM
same,TGI,[14],> 100 µM
same,TGI,[15],> 100 µM
same,TGI,[16],> 100 µM
same,TGI,[17],> 100 µM
same,TGI,[18],> 100 µM
same,TGI,[19],> 100 µM
same,TGI,[20],68.5 µM
same,TGI,[21],> 100 µM
same,TGI,[22],> 100 µM
same,TGI,[23],> 100 µM
same,TGI,[24],> 100 µM
same,TGI,[25],> 100 µM
same,TGI,[26],> 100 µM
same,TGI,[27],> 100 µM
same,TGI,[28],> 100 µM
same,TGI,[29],> 100 µM
same,TGI,[30],> 100 µM
same,TGI,[31],> 100 µM
same,TGI,[32],> 100 µM
same,TGI,[33],> 100 µM
same,TGI,[34],67.9 µM
same,TGI,[35],> 100 µM
same,TGI,[36],> 100 µM
same,TGI,[37],> 100 µM
same,TGI,[38],> 100 µM
same,TGI,[39],> 100 µM
same,TGI,[40],> 100 µM
same,TGI,[41],> 100 µM
same,TGI,[42],> 100 µM
same,TGI,[43],> 100 µM
same,TGI,[44],> 100 µM
same,TGI,[45],> 100 µM
same,TGI,[46],> 100 µM
same,TGI,[47],> 100 µM
same,TGI,[48],> 100 µM
same,TGI,[49],> 100 µM
same,TGI,[50],> 100 µM
same,TGI,[51],> 100 µM
same,TGI,[52],> 100 µM
same,TGI,[53],> 100 µM
same,TGI,[54],> 100 µM
same,TGI,[55],> 100 µM
same,TGI,[56],> 100 µM
C[C@]12CCC(=O)C=C1CC[C@@H]1[C@@H]2CC[C@]2(C)C(=O)/C(=C/c3ccncc3)C[C@@H]12,TGI,[1],> 100 µM
same,TGI,[57],29.7 µM
same,TGI,[2],46.1 µM
same,TGI,[3],25.7 µM
same,TGI,[4],55.1 µM
same,TGI,[5],> 100 µM
same,TGI,[6],28.9 µM
same,TGI,[7],56.2 µM
same,TGI,[8],34.6 µM
same,TGI,[9],31.1 µM
same,TGI,[10],23 µM
same,TGI,[11],46.5 µM
same,TGI,[12],48.8 µM
same,TGI,[13],31.4 µM
same,TGI,[14],> 100 µM
same,TGI,[15],45 µM
same,TGI,[16],66 µM
same,TGI,[17],42.8 µM
same,TGI,[18],25.6 µM
same,TGI,[19],28.6 µM
same,TGI,[20],35.2 µM
same,TGI,[21],35.6 µM
same,TGI,[22],29.4 µM
same,TGI,[23],31.3 µM
same,TGI,[24],36.1 µM
same,TGI,[25],45 µM
same,TGI,[26],34.2 µM
same,TGI,[27],33.8 µM
same,TGI,[28],32.5 µM
same,TGI,[29],44.9 µM
same,TGI,[30],90.2 µM
same,TGI,[31],25.6 µM
same,TGI,[32],43.7 µM
same,TGI,[33],29.2 µM
same,TGI,[34],31.8 µM
same,TGI,[35],45.1 µM
same,TGI,[36],30.5 µM
same,TGI,[37],27.4 µM
same,TGI,[38],22.1 µM
same,TGI,[39],54.3 µM
same,TGI,[40],33.8 µM
same,TGI,[41],24.1 µM
same,TGI,[42],26.6 µM
same,TGI,[58],> 100 µM
same,TGI,[43],30.8 µM
same,TGI,[44],56.7 µM
same,TGI,[45],39.4 µM
same,TGI,[46],27.1 µM
same,TGI,[47],38.3 µM
same,TGI,[48],> 100 µM
same,TGI,[49],30.9 µM
same,TGI,[50],42.5 µM
same,TGI,[51],64.9 µM
same,TGI,[59],26.8 µM
same,TGI,[52],61.9 µM
same,TGI,[53],38.5 µM
same,TGI,[55],32.7 µM
same,TGI,[56],27.1 µM
O=C(O)c1[nH]c(=O)[nH]c(=O)c1CN1CCCCC1,TGI,[1],> 100 µM
same,TGI,[57],> 100 µM
same,TGI,[3],> 100 µM
same,TGI,[4],> 100 µM
same,TGI,[5],> 100 µM
same,TGI,[6],> 100 µM
same,TGI,[7],> 100 µM
same,TGI,[8],> 100 µM
same,TGI,[9],> 100 µM
same,TGI,[10],> 100 µM
same,TGI,[11],> 100 µM
same,TGI,[12],> 100 µM
same,TGI,[13],> 100 µM
same,TGI,[14],> 100 µM
same,TGI,[15],> 100 µM
same,TGI,[16],> 100 µM
same,TGI,[17],> 100 µM
same,TGI,[18],> 100 µM
same,TGI,[19],> 100 µM
same,TGI,[20],> 100 µM
same,TGI,[21],> 100 µM
same,TGI,[22],> 100 µM
same,TGI,[23],> 100 µM
same,TGI,[24],> 100 µM
same,TGI,[25],> 100 µM
same,TGI,[26],> 100 µM
same,TGI,[27],> 100 µM
same,TGI,[28],> 100 µM
same,TGI,[29],> 100 µM
same,TGI,[30],> 100 µM
same,TGI,[31],> 100 µM
same,TGI,[32],> 100 µM
same,TGI,[33],> 100 µM
same,TGI,[34],> 100 µM
same,TGI,[35],> 100 µM
same,TGI,[36],> 100 µM
same,TGI,[37],> 100 µM
same,TGI,[38],> 100 µM
same,TGI,[39],> 100 µM
same,TGI,[40],> 100 µM
same,TGI,[41],> 100 µM
same,TGI,[42],> 100 µM
same,TGI,[58],> 100 µM
same,TGI,[43],> 100 µM
same,TGI,[44],> 100 µM
same,TGI,[45],> 100 µM
same,TGI,[46],> 100 µM
same,TGI,[47],> 100 µM
same,TGI,[48],> 100 µM
same,TGI,[49],> 100 µM
same,TGI,[50],> 100 µM
same,TGI,[59],> 100 µM
same,TGI,[52],> 100 µM
same,TGI,[53],> 100 µM
same,TGI,[54],> 100 µM
same,TGI,[55],> 100 µM
same,TGI,[56],> 100 µM
